Converted amounts (≈) assume the structure as drawn. Where a name gives a salt, the structure may show the parent alone. Read-outs that look alike come from different tables or passages of the source. Each block holds one molecule with its values, some of them ahead of it.
Columns and labels:
[1] = tested on: anaerobes, in particular Gram-positive anaerobes; conditions: cited from earlier work
[2] = in vivo; cited from earlier work
[3] = Solubility in aqueous media; type: physicochemical
[4] = First-in-Man study: iv. bolus or 20 min infusion of Compound 1; type: in vivo, humans; conditions: for AUC / Cmax: male, human, plasma, mean
Protocol: Volunteers were administered doses of up to 3.0 mg/kg body weight (BW) of Compound 1 given as iv. bolus injection of 2 min duration. Additionally, doses of 1.5 and 3.0 mg/kg BW of Compound 1 were administered as a short-term infusion of 20 min duration, resulting in infusion rates of 4.5 and 9.0 mg/(kg BW×h), respectively.

Gram-negative species = assay: Fecal microflora after i.v. infusions in healthy volunteers; type: in vivo, human; conditions: Compound 1 i.v. 6 mg/kg over 12 hours for 5 days
Protocol: (§1) Healthy human volunteers received i.v. infusions of Compound 1 at a dose of 6 mg/kg body weight over 12 hours for 5 consecutive days. […] Viable counts of lactobacilli were reduced from predose to Day 5 by 4.0 log 10 CFU/g. […] Likewise, enterococci were reduced from predose to Day 5 by 3.8 log 10 CFU/g on average.

[5] = tested on: Staphylococcus aureus ATCC 29213; assay: MIC testing according to CLSI guidelines; type: cell-based; conditions: ATCC29213
Source text: (§2) MIC testing was done according to CLSI (formerly NCCLS) guidelines: Performance Standards for Antimicrobial Susceptibility Testing 11th Informational Supplement, Vol. 21 No 1, M100-S11, January 2001. NCCLS. Revised edition: 17th Informational Supplement, Vol. 27 No 1, […], January 2007.

[6] = tested on: Enterococcus faecalis ATCC 29212; assay: MIC testing according to CLSI guidelines; type: cell-based; conditions: ATCC29212
Source text: as §2

[7] = tested on: Staphylococcus aureus Visa Mu 50; assay: MIC testing according to CLSI guidelines; type: cell-based
Source text: as §2

[8] = tested on: Enterococcus faecalis ATCC 51299; assay: MIC testing according to CLSI guidelines; type: cell-based; conditions: ATCC51299
Source text: as §2

[9] = tested on: Staphylococcus aureus ATCC 33593; assay: MIC testing according to CLSI guidelines; type: cell-based; conditions: ATCC33593
Source text: as §2

[10] = tested on: Staphylococcus aureus ATCC 43300; assay: MIC testing according to CLSI guidelines; type: cell-based; conditions: ATCC43300
Source text: as §2

[11] = tested on: Streptococcus pneumoniae ATCC 33400; assay: MIC testing according to CLSI guidelines; type: cell-based; conditions: ATCC33400
Source text: as §2

[12] = tested on: Staphylococcus aureus NRS 120; assay: MIC testing according to CLSI guidelines; type: cell-based; conditions: NRS120
Source text: as §2

Clostridium spp. = assay: Fecal microflora viable counts after i.v. infusions in healthy volunteers; type: in vivo, human
Protocol: as §1

enterococci = assay: as above; type: in vivo, human; conditions: Compound 1 i.v. 6 mg/kg over 12 hours for 5 days
Protocol: as §1

bifidobacteria = assay: as above; type: in vivo, human; conditions: Compound 1 i.v. 6 mg/kg over 12 hours for 5 days
Protocol: as §1

lactobacilli = assay: as above; type: in vivo, human; conditions: Compound 1 i.v. 6 mg/kg over 12 hours for 5 days
Protocol: as §1

Clostridium difficile = assay: Antimicrobial susceptibility of 114 C. difficile strains by agar dilution method; type: cell-based; conditions: for MIC50: Clostridioides difficile, read-out: MIC50
Protocol: One hundred fourteen Clostridium difficile strains were collected from 67 patients and analyzed for the presence of C. difficile toxin B by the cell cytotoxicity neutralization assay, genes for toxin A, toxin B, binary toxin and TcdC deletion by PCR. All strains were also PCR-ribotyped. The MICs of the isolates were determined against Compound 2 by the agar dilution method. All isolates were positive for toxin B. One hundred thirteen isolates were positive for toxin A and B genes. In addition, 13 isolates were positive for the binary toxin genes. Thirty-two different ribotypes were identified. No strain of ribotype 027 was found.
One hundred fourteen C. difficile strains were selected from patients (26 males and 41 females) with primary and/or recurrent CDI. The mean age of the patients was 74 years (age range 19-97 years). The strains (67 primary and 47 recurrent isolates) were identified by characteristic colony morphology, typical smell and Gram staining. Gas chromatography was used to detect volatile, short chain fatty acids production by the C. difficile strains for the final identification.
The antimicrobial susceptibility of the C. difficile strains was determined according to CLSI guidelines by the agar dilution method using Bacteroides fragilis ATCC 25285 and C. difficile ATCC 700057 as reference strains [CLSI. Methods for Antimicrobial Susceptibility Testing of Anaerobic Bacteria; Approved Standard-Eighth Edition. 2012].
MIC was defined as the lowest concentration of the drug that inhibited growth completely. MIC50/90 corresponds to the concentrations that inhibit the growth of 50% and 90%, of the strains tested, respectively.
PCR ribotype profiles from clinical isolates were compared to those profiles which define the database by maximum matching with Pearson correlation. IBM SPSS Statistics 22 (Armonk, N.Y., USA) software was used to calculate the percentiles 50 and 90 of the MIC results. Descriptive statistics were used to summarize the results.

[13] = tested on: Clostridium difficile infections (CDI); conditions: oral administration; cited from earlier work
C difficile [14] = conditions: cited from earlier work
C difficile [15] = conditions: cited from earlier work; remark: listed apart in the source
[16] = cited from earlier work
[17] = intravenous, Drug after 3.0 mg/kg BW Compound 1, 20 min infusion, 9.0 mg/(kg BW·h)
[18] = Drug after 3.0 mg/kg BW Compound 1 iv. bolus
[19] = 114 C. difficile strains, agar dilution

Structure (SMILES): O=C(O)c1cn(C2CC2)c2cc(N3CCNCC3)c(F)cc2c1=O [Ciprofloxacin]
Activity in vitro against anaerobes [1]: neither active in vitro | Fecal concentrations [2]: high

Solubility in aqueous media [3]: very good solubility | AUC of the Prodrug, 20 min infusion compared to bolus administration ([4]; 3.0 mg/kg BW): lower AUC | Conversion of the Prodrug to the Drug ([4]; humans, all doses applied): very rapid conversion
Structure (SMILES): CC(=O)NC[C@H]1CN(c2ccc(OCC3(OP(=O)(O)O)CCN(c4cc5c(cc4F)c(=O)c(C(=O)O)cn5C4CC4)CC3)c(F)c2)C(=O)O1 [Compound 1, sodium salt of 7-(4-{4-[(5S)-5-(Acetylamino-methyl)-2-oxo-oxazolidin-3-yl]-2-fluoro-phenoxymethyl}-4-phosphonooxy-piperidin-1-yl)-1-cyclopropyl-6-fluoro-4-oxo-1,4-dihydro-quinoline-3-carboxylic acid]

Structure (SMILES): CC(=O)NC[C@H]1CN(c2ccc(OCC3(O)CCN(c4cc5c(cc4F)c(=O)c(C(=O)O)cn5C4CC4)CC3)c(F)c2)C(=O)O1 [Compound 2, 7-(4-{4-[(5S)-5-(Acetylamino-methyl)-2-oxo-oxazolidin-3-yl]-2-fluoro-phenoxymethyl}-4-hydroxy-piperidin-1-yl)-1-cyclopropyl-6-fluoro-4-oxo-1,4-dihydro-quinoline-3-carboxylic acid]
AUC [4, 17]: 3230 ng·h/mL | Cmax [4, 17]: 3180 ng/mL | AUC [4, 18]: 2170 ng·h/mL | Cmax [4, 18]: 2450 ng/mL | Effect of exposure of the fecal flora on Gram-negative species (Gram-negative species): did not affect | MIC [5]: 0.5 µg/mL (≈ 0.798 µM) | MIC [6]: 0.25 µg/mL (≈ 0.399 µM) | MIC [7]: 0.5 µg/mL (≈ 0.798 µM) | MIC [8]: 0.25 µg/mL (≈ 0.399 µM) | MIC [9]: 0.25 µg/mL (≈ 0.399 µM) | MIC [10]: 0.5 µg/mL (≈ 0.798 µM) | MIC [11]: 0.03 µg/mL (≈ 0.0479 µM) | MIC [12]: 2 µg/mL (≈ 3.19 µM) | Reduction of viable counts of Clostridium spp. from predose to Day 5 (Clostridium spp.; Compound 1 i.v. 6 mg/kg over 12 hours for 5 days): 3.0 log 10 CFU/g | Viable counts of Clostridium spp. until Day 3 postdose (Clostridium spp.; all except one of the volunteers): reduced below the limit of detection | Reduction of enterococci from predose to Day 5, on average (enterococci): 3.8 log 10 CFU/g | Reduction of viable counts of bifidobacteria from predose to Day 5 (bifidobacteria): 7.9 log 10 CFU/g | Reduction of viable counts of lactobacilli from predose to Day 5 (lactobacilli): 4.0 log 10 CFU/g | MIC range (Clostridium difficile; 114 C. difficile isolates, agar dilution): 0.008-0.5 mg/1 | MIC90 (Clostridium difficile; [19]): 0.064 mg/1 | MIC range (Clostridium difficile; [19]): 0.008 to 0.5 mg/L | MIC50 (Clostridium difficile): 0.064 µg/mL (≈ 0.102 µM) | MIC50 (Clostridium difficile; [19]): 0.032 µg/mL (≈ 0.0511 µM) | Susceptibility of the C. difficile isolates (Clostridium difficile; all 114 isolates): sensitive

Structure (SMILES): CCc1c(Cl)c(O)c(Cl)c(O)c1C(=O)O[C@H]1[C@H](O)[C@H](OC)[C@H](OC/C2=C\C=C\C[C@H](O)/C(C)=C/[C@H](CC)[C@@H](O[C@@H]3OC(C)(C)[C@@H](OC(=O)C(C)C)[C@H](O)[C@@H]3O)/C(C)=C/C(C)=C/C[C@@H]([C@@H](C)O)OC2=O)O[C@@H]1C [fidaxomicin]
Frequency of recurrence of CDI [13]: approximately 13%

Structure (SMILES): CC(=O)NC[C@H]1CN(c2ccc(N3CCOCC3)c(F)c2)C(=O)O1 [linezolid]
Activity in vitro against C difficile (C difficile [14]): active | Activity in an in vitro human gut model (C difficile [15]): inactive | Fecal concentrations [2]: negligibly low | Fraction of the dose excreted via the feces [2]: 0.2 % of the dose

Structure (SMILES): Cc1ncc([N+](=O)[O-])n1CCO [metronidazole]
Toxicity associated with long term treatment [16]: neurotoxicity

Structure (SMILES): CN[C@H](CC(C)C)C(=O)N[C@H]1C(=O)N[C@@H](CC(N)=O)C(=O)N[C@H]2C(=O)N[C@H]3C(=O)N[C@H](C(=O)N[C@H](C(=O)O)c4cc(O)cc(O)c4-c4cc3ccc4O)[C@H](O)c3ccc(c(Cl)c3)Oc3cc2cc(c3O[C@@H]2O[C@H](CO)[C@@H](O)[C@H](O)[C@H]2O[C@H]2C[C@](C)(N)[C@H](O)[C@H](C)O2)Oc2ccc(cc2Cl)[C@H]1O [vancomycin]
Toxicity associated with long term treatment [16]: nephrotoxicity

— patent US10723746B2, “Oxazolidinone-quinolone hybrid antibacterials for the parenteral treatment or prophylaxis of bacterial diseases” (MORPHOCHEM AKTIENGESELLSCHAFT FÜR KOMBINATORISCHE CHEMIE, priority 2013, dated 2020)
